Assay results taken from PMC8190884 (ACS Omega, 2021).
Marks after values point to notes of the source that are not given here.

Tests used:
[1] = molecular target: T1, HIV reverse transcriptase (RT) (Human immunodeficiency virus type 1 group M subtype B, UniProt P04585); assay: Pre-steady-state observed incorporation rate constant; type: biochemical, HIV-1; details: 5 μM nucleotide; for kobs ± standard deviation: 37 °C
[2] = molecular target: T1, HIV reverse transcriptase (RT); assay: Pre-steady-state determination of KD and kpol; type: biochemical, HIV-1; details: for kpol (maximum incorporation rate) / Kd: curve fit ± standard error; for Kd: Kd (equilibrium dissociation constant)
HIV RT [3] = assay: Steady-state incorporation of 3′-O-CH3 dTTP by HIV RT; type: biochemical, HIV-1; details: 100 μM 3′-O-methyl dTTP; for kobs ± standard deviation (steady-state): 20 nM primer–template, 20 nM RT, 30 min
HIV RT [4] = assay: Primer extension inhibition assay on a 100-nt DNA template; type: biochemical, HIV-1; details: 5 μM dNTPs, 3 μM analogue, 0.5 or 6 mM Mg2+, 30 min
HIV RT [5] = details: 6 mM Mg2+, different template; ref manuscript in preparation; cited from earlier work
HIV = details: cited from earlier work

SMILES | 6/0.5 mM Mg2+ with the same nucleotide (ratio of kobs; fold slower in 0.5 mM) [1] | relative rate vs dTTP same [Mg2+] ([1]; 0.5 mM Mg2+) | kobs ± standard deviation ([1]; 0.5 mM free Mg2+) [s^–1] | relative rate vs dTTP same [Mg2+] ([1]; 6 mM Mg2+) | kobs ± standard deviation ([1]; 6 mM Mg2+) [s^–1] | other results
Cc1cn([C@H]2C[C@H](N=[N+]=[N-])[C@@H](CO[P@](=O)(O)O[P@](=O)(O)OP(=O)(O)O)O2)c(=O)[nH]c1=O [AZTTP] | 4.5 | 0.23 | 2.0 ± 0.5 | 0.63 | 8.9 ± 1.9 | fold slower kobs compared to dTTP ([1]; 6 mM (high) Mg2+): about 2 fold; efficiency decline (fold decline in kpol/Kd relative to dTTP at the same Mg2+) ([2]; 0.5 mM Mg2+): 7.2 fold; kpol/Kd (catalytic efficiency) ([2]; 0.5 mM Mg2+): 0.6; kpol (maximum incorporation rate) ([2]; 0.5 mM Mg2+): 3.3 ± 0.3 s^–1; efficiency decline (fold decline in kpol/Kd relative to dTTP at the same Mg2+) ([2]; 6 mM Mg2+): 1.5 fold; kpol (maximum incorporation rate) ([2]; 6 mM Mg2+): 17.0 ± 0.6 s^–1; Kd ([2]; 0.5 mM Mg2+): 5.5 ± 1.7 µM
CO[C@H]1C[C@H](n2cc(C)c(=O)[nH]c2=O)O[C@@H]1COP(=O)(O)OP(=O)(O)OP(=O)(O)O [3′-O-methyl dTTP] | – | – | – | – | – | 6/0.5 mM Mg2+ with the same nucleotide (steady-state rates) (HIV RT [3]): 5.4; kobs ± standard deviation (steady-state) (HIV RT [3]; 0.5 mM Mg2+): 3.3 × 10^–5± 0.6 × 10^–5 ^c nM/min; kobs ± standard deviation (steady-state) (HIV RT [3]; 6 mM Mg2+): 1.8 × 10^–4± 0.2 × 10^–4 ^c nM/min; inhibition of primer extension (terminated vs fully extended products), in words (HIV RT [4]): no inhibition
Cc1cn([C@@H]2C[C@H](COP(=O)(O)OP(=O)(O)OP(=O)(O)O)[C@@H](O)C2)c(=O)[nH]c1=O [D-carba dTTP] | not strongly affected | 0.13 | 1.1 ± 0.5 | 0.092 | 1.3 ± 0.1 | inhibition of primer extension (terminated vs fully extended products), in words (HIV RT [4]): by far the weakest inhibitor; inhibition of primer extension (terminated vs fully extended products), in words (HIV RT [4]; listed as D-carba): weak inhibitor under both conditions; KD, fold higher than 4′-C-ethyl and 4′-C-methyl dTTP (HIV RT [5]): 4–8 fold
CC[C@]1(COP(=O)(O)OP(=O)(O)OP(=O)(O)O)O[C@@H](n2cc(C)c(=O)[nH]c2=O)C[C@@H]1O [4′-C-ethyl dTTP] | – | 0.15 | 1.3 ± 0.1 | 0.28 | 3.9 ± 0.4 | incorporation rate, fold faster than D-carba dTTP ([1]; 6 mM Mg2+): about 3 fold; inhibition of primer extension (terminated vs fully extended products), in words (HIV RT [4]): less effective
Nc1ncnc2c1ncn2[C@H]1CC[C@@H](CO[P@@](=O)(O)O[P@](=O)(O)OP(=O)(O)O)O1 [ddATP] | – | – | – | – | – | selectivity index, fold lower than that for AZT (HIV): about 4.5 fold

Now from value to compound, other results behind:

6/0.5 mM Mg2+ with the same nucleotide (ratio of kobs; fold slower in 0.5 mM) [1] | relative rate vs dTTP same [Mg2+] ([1]; 0.5 mM Mg2+) | kobs ± standard deviation ([1]; 0.5 mM free Mg2+) [s^–1] | relative rate vs dTTP same [Mg2+] ([1]; 6 mM Mg2+) | kobs ± standard deviation ([1]; 6 mM Mg2+) [s^–1] | SMILES | other results
3.8 | 0.094 | 0.81 ± 0.13 | 0.22 | 3.1 ± 0.1 | Cc1cn([C@H]2C[C@H](N)[C@@H](COP(=O)(O)OP(=O)(O)OP(=O)(O)O)O2)c(=O)[nH]c1=O [3′-amino dTTP] | fold slower kobs compared to dTTP ([1]; 0.5 mM (low) Mg2+): > 10 fold
4.6 | 0.21 | 1.8 ± 0.7 | 0.59 | 8.3 ± 0.8 | Cc1cn([C@H]2C=C[C@@H](COP(=O)(O)OP(=O)(O)OP(=O)(O)O)O2)c(=O)[nH]c1=O [d4TTP, 2′,3′-didehydro-2′,3′-dideoxythymidine triphosphate] | fold slower kobs compared to dTTP ([1]; 6 mM (high) Mg2+): about 2 fold; efficiency decline (fold decline in kpol/Kd relative to dTTP at the same Mg2+) ([2]; 0.5 mM Mg2+): 6.7 fold; kpol/Kd (catalytic efficiency) ([2]; 0.5 mM Mg2+): 0.64; kpol (maximum incorporation rate) ([2]; 0.5 mM Mg2+): 4.9 ± 0.5 s^–1; efficiency decline (fold decline in kpol/Kd relative to dTTP at the same Mg2+) ([2]; 6 mM Mg2+): 3.2 fold; kpol/Kd (catalytic efficiency) ([2]; 6 mM Mg2+): 1.9; kpol (maximum incorporation rate) ([2]; 6 mM Mg2+): 22.3 ± 1.7 s^–1
2.8 | 0.063 | 0.54 ± 0.13 | 0.11 | 1.5 ± 0.1 | Cc1cn([C@H]2C[C@H](F)[C@@H](COP(=O)(O)OP(=O)(O)OP(=O)(O)O)O2)c(=O)[nH]c1=O [3′-fluoro dTTP] | fold slower kobs compared to dTTP ([1]; 0.5 mM (low) Mg2+): > 10 fold
0.88 | 0.52 | 4.5 ± 1.4 | 0.28 | 3.9 ± 2.8 | Cc1cn([C@H]2C[C@H](O)[C@@](C)(COP(=O)(O)OP(=O)(O)OP(=O)(O)O)O2)c(=O)[nH]c1=O [4′-C-methyl dTTP] | incorporation rate, fold faster than D-carba dTTP ([1]; 6 mM Mg2+): about 3 fold
5.1 | 0.16 | 1.4 ± 0.7 | 0.51 | 7.2 ± 1.0 | Cc1cn([C@H]2CC[C@@H](COP(=O)(O)OP(=O)(O)OP(=O)(O)O)O2)c(=O)[nH]c1=O [ddTTP, dideoxy TTP] | fold slower kobs compared to dTTP ([1]; 6 mM (high) Mg2+): about 2 fold
1.6 | 1 | 8.6 ± 1.3 | 1 | 14.1 ± 1.2 | Cc1cn([C@H]2C[C@H](O)[C@@H](CO[P@](=O)(O)O[P@@](=O)(O)OP(=O)(O)O)O2)c(=O)[nH]c1=O [dTTP, Deoxythymidine triphosphate] | efficiency decline (fold decline in kpol/Kd relative to dTTP at the same Mg2+) ([2]; 0.5 mM Mg2+): 1 fold; kpol/Kd (catalytic efficiency) ([2]; 0.5 mM Mg2+): 4.3; kpol (maximum incorporation rate) ([2]; 0.5 mM Mg2+): 14.3 ± 0.8 s^–1; efficiency decline (fold decline in kpol/Kd relative to dTTP at the same Mg2+) ([2]; 6 mM Mg2+): 1 fold; kpol/Kd (catalytic efficiency) ([2]; 6 mM Mg2+): 6.0; kpol (maximum incorporation rate) ([2]; 6 mM Mg2+): 25.0 ± 1.3 s^–1; Kd ([2]; 0.5 mM Mg2+): 3.3 ± 0.6 µM; Kd ([2]; 6 mM Mg2+): 4.2 ± 0.7 µM
